Consider 27 molecules from patent US8946225B2, “Derivatives of 2H pyridazin-3-ones, their preparation and their use as SCD-1 inhibitors” (Pierre Fabre Medicament, priority 2009, dated 2015).

Each structure is given as a SMILES string. pIC50: −log10 of the molar value.

One series concerns the target T1, SCD-1 (Homo sapiens, UniProt O00767).
T1 construct: addition of 125 μg of microsomal fraction of HepG2 cells; host or cells: HepG2 human hepatocarcinoma cells (microsomal fraction)
T1 sequence (O00767 1-359): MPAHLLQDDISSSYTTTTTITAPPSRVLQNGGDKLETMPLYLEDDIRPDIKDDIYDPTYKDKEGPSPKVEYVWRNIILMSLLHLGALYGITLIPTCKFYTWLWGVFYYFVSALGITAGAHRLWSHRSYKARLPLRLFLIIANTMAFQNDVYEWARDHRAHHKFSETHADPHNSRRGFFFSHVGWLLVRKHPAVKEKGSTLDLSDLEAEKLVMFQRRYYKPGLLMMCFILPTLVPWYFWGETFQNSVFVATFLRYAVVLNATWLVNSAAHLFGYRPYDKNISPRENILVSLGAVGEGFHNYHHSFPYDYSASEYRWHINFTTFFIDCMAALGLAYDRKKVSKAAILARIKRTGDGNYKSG
The series is described as follows: Human enzymatic activity of SCD-1 from microsomes of HepG2 cells (conversion of [14C] stearic acid to oleic acid, HPLC). The format is biochemical. The conditions noted are these: microsomal fraction of HepG2 cells, 62 μM stearic acid, 20 minutes at 37° C., vs vehicle 0.1% DMSO; read-out: HSCD-1 (HEPG2) IC50. As to the method: In vitro: Human enzymatic activity of SCD-1 from microsomes of HepG2 cells after treatment with the inhibitor compounds (% inhibition).
HepG2 cells of human hepatocarcinoma (ATCC, HB-8065) are cultured at confluence then trypsinated. The cell residue is solubilized in 10 mM Tris buffer (pH 7.4) sucrose (250 mM) DTT (1 mM) then the cells are lysed by sonication. The microsomes are obtained after centrifuging at 10,000 g for 20 minutes at 4° C. followed by centifrugation of the supernatant at 100,000 g for 60 minutes at 4° C. The residue is solubilized in 10 mM Tris buffer (pH 7.4) sucrose (250 mM) at 4° C. and the microsomal proteins are assayed and stored at −196° C. (liquid nitrogen).
The enzymatic reaction measures the conversion of stearic acid (C18:0 fatty acid) into oleic acid (C18:1 fatty acid) by SCD-1. The enzymatic reaction is initiated by the addition of 125 μg of microsomal fraction of HepG2 cells to tubes (total reaction volume of 500 μl) containing 62 μM stearic acid (45 μM stearic acid and 17 μM [^14C] stearic acid) in 100 mM phosphate buffer (pH 7.16) with 7.2 mM ATP, 0.54 mM CoA, 6 mM MgCl2, 0.8 mM NADH and the inhibitor compound or vehicle (0.1% DMSO). The tubes are incubated for 20 minutes at 37° C. then the enzymatic reaction is halted by the addition of KOH (12%) and saponification for 30 minutes at 80° C. After acidification (3N HCl), the fatty acids are extracted twice with ethyl ether, evaporated under nitrogen before being solubilized in methanol/dichloromethane (3:1). The reaction product (C18:1) is separated from the reaction substrate (C18:0) by HPLC (Perkin Elmer, C18 reverse phase column) coupled with an in-line radioactivity detector (FlowOne). Enzymatic activity is measured in picomoles of stearic acid converted to oleic acid per minute and per mg of protein. For each inhibitor compound, an IC50 value is determined, compared with the reference enzymatic activity (vehicle 0.1% DMSO). Sterculic acid is the reference inhibitor compound (Gomez F. E., Bauman D. E., Ntambi J. M., Fox B. G. Effects of sterculic acid on stearoyl-CoA desaturase in differentiating […] adipocytes. Biochem Biophys Res Commun. 300 316-326 (2003).
Broadly, the pIC50 is the negative decadic logarithm of the IC50, by convention in mol/L. On to `O=C(CNc1ccnn(CCCC(F)(F)F)c1=O)N1CCC(Oc2cc(C(F)(F)F)ccc2Cl)CC1` [Example 45, 4-{2-[4-(2-Chloro-5-trifluoromethyl-phenoxy)-piperidin-1-yl]-2-oxo-ethylamino}-2-(4,4,4-trifluoro-butyl)-2H-pyridazin-3-one], for which the pIC50 was 6.00 to 7.00. In the case of `CN(CC(=O)N1CCC(Oc2ccccc2Cl)CC1)c1ccnn(C)c1=O` [Example 18, 4-({2-[4-(2-Chloro-phenoxy)-piperidin-1-yl]-2-oxo-ethyl}-methyl-amino)-2-methyl-2H-pyridazin-3-one], the pIC50 was 5.00 to 5.52. In the case of `Cn1ncc(NCC(=O)N2CCC(Oc3cc(F)ccc3Cl)CC2)cc1=O` [Example 20, 5-{2-[4-(2-Chloro-5-fluoro-phenoxy)-piperidin-1-yl]-2-oxo-ethylamino}-2-methyl-2H-pyridazin-3-one], the pIC50 was about 5.00. As to `O=C(CNc1ccn[nH]c1=O)N1CCC(Oc2cccc(C(F)(F)F)c2)CC1` [Example 44, 4-{2-[4-(3-trifluoromethyl-phenoxy)-piperidin-1-yl]-2-oxo-ethylamino}-2H-pyridazin-3-one], the negative-log IC50 (pIC50) is 6.00 to 7.00. On the same count and under the same terms, under `CC#CCn1nccc(NCC(=O)N2CCC(Oc3cc(C(F)(F)F)ccc3Cl)CC2)c1=O` [Example 46, 2-But-2-ynyl-4-{2-[4-(2-chloro-5-trifluoromethyl-phenoxy)-piperidin-1-yl]-2-oxo-ethylamino}-2H-pyridazin-3-one] stands 6.00; under `O=C(CNc1ccn[nH]c1=O)N1CCC(Oc2cc(F)c(F)cc2Br)CC1` [Example 43, 4-{2-[4-(2-Bromo-4,5-difluoro-phenoxy)-piperidin-1-yl]-2-oxo-ethylamino}-2H-pyridazin-3-one], 7.00 to 8.00; under `Cn1nccc(CCC(=O)N2CCC(Oc3cc(C(F)(F)F)ccc3Cl)CC2)c1=O` [Example 37, 4-{3-[4-(2-Chloro-5-trifluoromethyl-phenoxy)-piperidin-1-yl]-3-oxo-propyl}-2-methyl-2H-pyridazin-3-one], 6.52. The same measure, in the same setting: under `O=C(CNc1ccnn(Cc2ccccc2)c1=O)N1CCC(Oc2ccccc2C(F)(F)F)CC1` [Example 48, 2-Benzyl-4-{2-oxo-2-[4-(2-trifluoromethyl-phenoxy)-piperidin-1-yl]-ethylamino}-2H-pyridazin-3-one] stands 5.00 to 6.00; under `O=C(CNc1ccn[nH]c1=O)N1CCC(Oc2cc(Br)ccc2Cl)CC1` [Example 42, 4-{2-[4-(5-Bromo-2-Chloro-phenoxy)-piperidin-1-yl]-2-oxo-ethylamino}-2H-pyridazin-3-one], 7.00 to 8.00; under `O=C(CNc1ccn[nH]c1=O)N1CCC(Oc2cc(Cl)ccc2Cl)CC1` [Example 41, 4-{2-[4-(2,5-dichloro-phenoxy)-piperidin-1-yl]-2-oxo-ethylamino}-2H-pyridazin-3-one], 7.00 to 8.00.

For the molecule `CCCCCCCCC1=C(CCCCCCCC(=O)O)C1` [Sterculic acid, reference compound], the pIC50 was 6.52. Same read-out and setting: under `CC(C)CCCn1nccc(NCC(=O)N2CCC(Oc3cc(C(F)(F)F)ccc3Cl)CC2)c1=O` [Example 47, 4-{2-[4-(2-Chloro-5-trifluoromethyl-phenoxy)-piperidin-1-yl]-2-oxo-ethylamino}-2-(4-methyl-pentyl)-2H-pyridazin-3-one] stands 6.00 to 6.52.

System in another series: not given
Test: not given
Conditions: not given
As usually defined, the melting point is the temperature of the solid-liquid transition. For `Cn1nccc(OCC(=O)N2CCC(Oc3ccc(F)cc3Cl)CC2)c1=O` [Example 22, 4-{2-[4-(2-Chloro-4-fluoro-phenoxy)-piperidin-1-yl]-2-oxo-ethoxy}-2-methyl-2H-pyridazin-3-one], the melting point amounted to 135 °C. `Cn1ncc(NCC(=O)N2CCC(Oc3ccccc3C(F)(F)F)CC2)cc1=O` [Example 19, 2-Methyl-5-{2-oxo-2-[4-(2-trifluoromethyl-phenoxy)-piperidin-1-yl]-ethylamino}-2H-pyridazin-3-one] displayed a melting point of 245 to 260 °C. For `C[C@H](Nc1ccnn(C)c1=O)C(=O)N1CCC(Oc2cc(C(F)(F)F)ccc2Cl)CC1` [Example 39, 4-{(S)-2-[4-(2-Chloro-5-trifluoromethyl-phenoxy)-piperidin-1-yl]-1-methyl-2-oxo-ethylamino}-2-methyl-2H-pyridazin-3-one], the melting point worked out at 70 °C. `CC(C)n1nccc(NCC(=O)N2CCC(Oc3ccccc3C(F)(F)F)CC2)c1=O` [Example 49, 2-Isopropyl-4-{2-oxo-2-[4-(2-trifluoromethyl-phenoxy)-piperidin-1-yl]-ethylamino}-2H-pyridazin-3-one] showed a melting point of 180 °C. Same read-out and setting: under `Cn1nccc(NCC(=O)N2CCN(C(=O)c3ccccc3C(F)(F)F)CC2)c1=O` [Example 30, 2-Methyl-4-{2-oxo-2-[4-(2-trifluoromethyl-benzoyl)-piperazin-1-yl]-ethylamino}-2H-pyridazin-3-one] stands 170 °C; under `Cn1nccc(NCC(=O)N2CCC(Oc3ccccc3[N+](=O)[O-])CC2)c1=O` [Example 15, 2-Methyl-4-{2-[4-(2-nitro-phenoxy)-piperidin-1-yl]-2-oxo-ethylamino}-2H-pyridazin-3-one], 160 °C; under `C[C@@H](Nc1ccnn(C)c1=O)C(=O)N1CCC(Oc2cc(C(F)(F)F)ccc2Cl)CC1` [Example 38, 4-{(R)-2-[4-(2-Chloro-5-trifluoromethyl-phenoxy)-piperidin-1-yl]-1-methyl-2-oxo-ethylamino}-2-methyl-2H-pyridazin-3-one], 70 °C.

On to `Cn1nccc(NCC(=O)N2CCC(Oc3cc(F)ccc3F)CC2)c1=O` [Example 13, 4-{2-[4-(2,5-Difluoro-phenoxy)-piperidin-1-yl]-2-oxo-ethylamino}-2-methyl-2H-pyridazin-3-one], for which the melting point is 160 °C.

`Cn1nccc(NCC(=O)N2CCN(C(=O)c3cc(F)ccc3C(F)(F)F)CC2)c1=O` [Example 29, 4-{2-[4-(5-Fluoro-2-trifluoromethyl-benzoyl)-piperazin-1-yl]-2-oxo-ethylamino}-2-methyl-2H-pyridazin-3-one] had a melting point of 210 °C. Regarding `Cn1ncc(OCC(=O)N2CCC(Oc3ccc(Cl)cc3Cl)CC2)cc1=O` [Example 26, 5-{2-[4-(2,4-Dichloro-phenoxy)-piperidin-1-yl]-2-oxo-ethoxy}-2-methyl-2H-pyridazin-3-one], the melting point was 140 °C. The same measure, in the same setting: under `Cn1nccc(NCC(=O)N2CC(COc3cc(C(F)(F)F)ccc3Cl)C2)c1=O` [Example 33, 4-{2-[3-(2-Chloro-5-trifluoromethyl-phenoxymethyl)-azetidin-1-yl]-2-oxo-ethylamino}-2-methyl-2H-pyridazin-3-one] stands 174 °C.

The molecule `CCCCn1nccc(NCC(=O)N2CCC(Oc3ccccc3Cl)CC2)c1=O` [Example 50, 2-Butyl-4-{2-[4-(2-chloro-phenoxy)-piperidin-1-yl]-2-oxo-ethylamino}-2H-pyridazin-3-one] had a melting point of 82 °C. The same measure, in the same setting: under `CN(Cc1ccc(Cl)c(Cl)c1)C1CCN(C(=O)CNc2ccnn(C)c2=O)CC1` [Example 28, 4-(2-{4-[(3,4-Dichloro-benzyl)-methyl-amino]-piperidin-1-yl}-2-oxo-ethylamino)-2-methyl-2H-pyridazin-3-one] stands 155 °C. Same read-out and setting: under `CC(=O)c1ccc(F)cc1OC1CCN(C(=O)COc2ccnn(C)c2=O)CC1` [Example 23, 4-{2-[4-(2-Acetyl-5-fluoro-phenoxy)-piperidin-1-yl]-2-oxo-ethoxy}-2-methyl-2H-pyridazin-3-one] stands 192 °C; under `Cn1nccc(OCC(=O)N2CCC(Oc3ccccc3OC(F)(F)F)CC2)c1=O` [Example 21, 2-Methyl-4-{2-oxo-2-[4-(2-trifluoromethoxy-phenoxy)-piperidin-1-yl]-ethoxy}-2H-pyridazin-3-one], 126 °C.
